Data on 5 compounds can be found in ChEMBL document CHEMBL1201862, “PubChem BioAssay data set” (2004).

The source made the active and inactive calls.

A short description of experiment [1]: cells. Format: functional, cell-based.
A further experiment deals with BJ. Nature of the experiment: cells. Format: functional, cell-based. Conditions: Homo sapiens.
Experiment [2] is described as follows: cells. Format: functional, cell-based. This is another data set of the same source.
In experiment [3] the target is Intestinal-type alkaline phosphatase (Mus musculus, UniProt P24822). Nature of the experiment: PubChem AID 488874. The experiment is classed as functional.
Sequence of Intestinal-type alkaline phosphatase (P24822 whole entry): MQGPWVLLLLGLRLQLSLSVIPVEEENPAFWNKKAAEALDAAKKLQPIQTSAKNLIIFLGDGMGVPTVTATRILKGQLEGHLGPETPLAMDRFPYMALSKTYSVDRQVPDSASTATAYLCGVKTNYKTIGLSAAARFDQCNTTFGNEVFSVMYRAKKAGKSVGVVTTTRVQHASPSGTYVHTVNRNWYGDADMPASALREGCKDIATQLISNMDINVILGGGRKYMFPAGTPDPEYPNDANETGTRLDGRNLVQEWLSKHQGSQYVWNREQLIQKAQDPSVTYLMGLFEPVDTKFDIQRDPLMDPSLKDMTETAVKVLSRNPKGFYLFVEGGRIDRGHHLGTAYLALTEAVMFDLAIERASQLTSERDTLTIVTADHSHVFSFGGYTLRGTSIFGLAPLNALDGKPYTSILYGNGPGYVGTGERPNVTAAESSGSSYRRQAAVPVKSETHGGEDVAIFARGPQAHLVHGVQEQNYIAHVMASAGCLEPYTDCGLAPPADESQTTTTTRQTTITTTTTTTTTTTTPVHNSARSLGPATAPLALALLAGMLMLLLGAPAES
In experiment [4] the target is T1, Alkaline phosphatase, tissue-nonspecific isozyme (Homo sapiens, UniProt P05186).
T1 sequence (P05186 whole entry): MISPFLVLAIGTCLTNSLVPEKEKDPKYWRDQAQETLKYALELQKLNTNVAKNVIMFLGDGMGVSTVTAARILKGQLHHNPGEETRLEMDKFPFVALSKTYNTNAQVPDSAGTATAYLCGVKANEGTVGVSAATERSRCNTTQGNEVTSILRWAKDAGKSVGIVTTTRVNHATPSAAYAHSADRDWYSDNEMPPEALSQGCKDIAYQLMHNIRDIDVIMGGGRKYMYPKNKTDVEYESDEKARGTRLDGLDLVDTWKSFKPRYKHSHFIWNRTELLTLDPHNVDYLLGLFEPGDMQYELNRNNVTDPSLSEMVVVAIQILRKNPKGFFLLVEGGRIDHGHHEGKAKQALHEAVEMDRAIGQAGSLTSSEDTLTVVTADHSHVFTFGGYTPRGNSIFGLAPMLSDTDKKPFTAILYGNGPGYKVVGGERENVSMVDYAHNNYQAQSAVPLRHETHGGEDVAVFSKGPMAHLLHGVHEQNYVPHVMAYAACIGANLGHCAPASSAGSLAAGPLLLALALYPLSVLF
Nature of the experiment: TNAP enzyme activators, dose response, selectivity assay for human IAP activator project, biochemical, TNAP isozyme, human IAP uHTS hits (AID 488886).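 Further: potency of compounds raising TNAP activity as a selectivity check on IAP activators.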 Format: functional.

The target in experiment [5] is 72 kDa type IV collagenase (Homo sapiens, UniProt P08253). Nature of the experiment: Dose Response validation of uHTS RPN11 inhibitor hits using a MMP-2 Fluorescence assay. The experiment is classed as functional.
Sequence of 72 kDa type IV collagenase (P08253 whole entry): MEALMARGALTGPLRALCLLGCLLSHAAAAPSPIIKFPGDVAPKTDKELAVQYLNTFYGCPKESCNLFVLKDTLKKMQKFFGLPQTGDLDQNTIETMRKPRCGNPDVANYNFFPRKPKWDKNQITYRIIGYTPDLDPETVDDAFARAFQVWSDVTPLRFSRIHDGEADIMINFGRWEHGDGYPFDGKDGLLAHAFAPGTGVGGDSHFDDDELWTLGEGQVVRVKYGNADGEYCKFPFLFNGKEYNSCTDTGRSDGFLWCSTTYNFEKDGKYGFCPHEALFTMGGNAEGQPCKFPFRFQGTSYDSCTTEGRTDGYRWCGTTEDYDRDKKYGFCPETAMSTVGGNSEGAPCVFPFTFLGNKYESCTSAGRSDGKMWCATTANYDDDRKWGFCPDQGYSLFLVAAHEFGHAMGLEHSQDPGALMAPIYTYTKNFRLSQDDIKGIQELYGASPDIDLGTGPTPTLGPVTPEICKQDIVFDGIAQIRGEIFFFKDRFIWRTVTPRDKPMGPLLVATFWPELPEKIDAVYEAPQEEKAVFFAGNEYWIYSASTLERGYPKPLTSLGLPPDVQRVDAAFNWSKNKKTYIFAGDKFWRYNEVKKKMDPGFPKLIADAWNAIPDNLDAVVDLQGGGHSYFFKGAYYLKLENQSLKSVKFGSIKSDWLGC
For another experiment, the target named is Prothrombin (Bos taurus, UniProt P00735). Nature of the experiment: thrombin inhibition, dose response, biochemical, fluorescence polarization, uHTS hits (AID 602369). The experiment is classed as functional.
Experiment [6] has as its target Homeodomain-interacting protein kinase 2 (Homo sapiens, UniProt Q9H2X6). The experiment is classed as functional.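 Further: measured within a kinome-wide kinase profiling panel, HIPK2 being one panel member.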
Experiment [7] concerns the target Hepatocyte growth factor receptor (Homo sapiens, UniProt P08581). Format: functional.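 Further: kinase panel profiling across the kinome, with MET as the panel member.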
In experiment [8] the target is T2, Short transient receptor potential channel 4 (Mus musculus, UniProt Q9QUQ5).
T2 sequence (Q9QUQ5 whole entry): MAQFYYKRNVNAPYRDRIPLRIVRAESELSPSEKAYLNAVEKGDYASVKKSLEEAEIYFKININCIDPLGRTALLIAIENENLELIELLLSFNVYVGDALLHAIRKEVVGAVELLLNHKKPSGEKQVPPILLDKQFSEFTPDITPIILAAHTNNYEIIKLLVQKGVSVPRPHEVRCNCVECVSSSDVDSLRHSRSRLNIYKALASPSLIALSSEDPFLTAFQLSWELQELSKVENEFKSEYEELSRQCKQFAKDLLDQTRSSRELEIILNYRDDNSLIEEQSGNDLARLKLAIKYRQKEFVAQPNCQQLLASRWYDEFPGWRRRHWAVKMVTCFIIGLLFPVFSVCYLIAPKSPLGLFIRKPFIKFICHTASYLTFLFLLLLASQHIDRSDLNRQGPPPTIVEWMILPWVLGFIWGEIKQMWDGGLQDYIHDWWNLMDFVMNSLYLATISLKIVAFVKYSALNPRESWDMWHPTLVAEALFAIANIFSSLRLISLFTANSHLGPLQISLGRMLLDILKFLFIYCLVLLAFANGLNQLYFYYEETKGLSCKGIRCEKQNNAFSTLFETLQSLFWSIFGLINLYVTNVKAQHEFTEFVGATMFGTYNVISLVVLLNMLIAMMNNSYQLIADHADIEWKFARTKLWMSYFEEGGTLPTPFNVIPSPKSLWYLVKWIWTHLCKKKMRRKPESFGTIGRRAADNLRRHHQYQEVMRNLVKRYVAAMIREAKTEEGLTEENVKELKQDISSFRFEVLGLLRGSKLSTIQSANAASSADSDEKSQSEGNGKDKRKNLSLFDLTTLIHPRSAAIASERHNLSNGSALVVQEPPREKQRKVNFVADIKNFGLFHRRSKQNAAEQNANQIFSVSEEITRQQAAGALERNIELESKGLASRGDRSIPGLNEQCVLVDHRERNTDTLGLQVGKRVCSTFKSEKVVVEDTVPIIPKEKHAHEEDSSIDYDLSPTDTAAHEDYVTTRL
Nature of the experiment: mouse TRPC4 channel activators, dose response, cell-based, HEK293 TRPC4/mu-opioid, Fluo-4 calcium (AID 434937). Format: functional.

Experiment [9] concerns HEK293. Nature of the experiment: HEK cell cytotoxicity by LDH release, dose response, cytotoxicity control for IDE activator project, fluorescence, HEK cells (AID 588440).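 Further: cytotoxicity by LDH release measuring loss of membrane integrity.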 Particulars: Homo sapiens. The experiment is classed as functional, cell-based.
For experiment [10], the system named is HEK293. Nature of the experiment: optical interference in Abeta FP readout, dose response, artefact control for IDE activator project, biochemical, fluorescence polarization (AID 588442). Particulars: Homo sapiens. The experiment is classed as functional, cell-based.
Experiment [11] can be described thus: inhibitors of firefly luciferase expression or activity, dose response, H4 neuroglioma cells, luminescence (AID 1990). The experiment is classed as functional, cell-based.
For experiment [12], the target named is T3, Rac GTPase-activating protein 1 (Homo sapiens, UniProt Q9H0H5).
T3 sequence (Q9H0H5 whole entry): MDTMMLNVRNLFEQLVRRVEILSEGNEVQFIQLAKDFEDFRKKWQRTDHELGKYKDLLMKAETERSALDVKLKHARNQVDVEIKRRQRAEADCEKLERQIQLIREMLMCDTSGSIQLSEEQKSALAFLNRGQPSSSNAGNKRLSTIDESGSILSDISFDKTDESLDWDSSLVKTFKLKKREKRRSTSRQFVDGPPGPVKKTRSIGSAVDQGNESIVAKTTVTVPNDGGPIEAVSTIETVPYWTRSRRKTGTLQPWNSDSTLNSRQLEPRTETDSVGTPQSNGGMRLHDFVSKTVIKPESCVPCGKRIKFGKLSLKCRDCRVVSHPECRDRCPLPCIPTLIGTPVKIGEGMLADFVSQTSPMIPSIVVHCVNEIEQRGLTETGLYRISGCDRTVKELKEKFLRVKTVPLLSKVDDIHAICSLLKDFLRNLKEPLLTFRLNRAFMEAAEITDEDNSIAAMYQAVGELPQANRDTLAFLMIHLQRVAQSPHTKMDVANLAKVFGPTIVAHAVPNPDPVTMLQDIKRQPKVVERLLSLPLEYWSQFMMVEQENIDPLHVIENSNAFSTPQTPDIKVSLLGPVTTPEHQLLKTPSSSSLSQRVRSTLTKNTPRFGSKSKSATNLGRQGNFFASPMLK
Nature of the experiment: MgcRacGAP GTPase-activating activity inhibitors, confirmation, biochemical, ADP Hunter fluorescence, primary and confirmatory (AID 624330). Format: functional.

Experiment [13] in a line: cells.

Sequence of Hepatocyte growth factor receptor (P08581 whole entry): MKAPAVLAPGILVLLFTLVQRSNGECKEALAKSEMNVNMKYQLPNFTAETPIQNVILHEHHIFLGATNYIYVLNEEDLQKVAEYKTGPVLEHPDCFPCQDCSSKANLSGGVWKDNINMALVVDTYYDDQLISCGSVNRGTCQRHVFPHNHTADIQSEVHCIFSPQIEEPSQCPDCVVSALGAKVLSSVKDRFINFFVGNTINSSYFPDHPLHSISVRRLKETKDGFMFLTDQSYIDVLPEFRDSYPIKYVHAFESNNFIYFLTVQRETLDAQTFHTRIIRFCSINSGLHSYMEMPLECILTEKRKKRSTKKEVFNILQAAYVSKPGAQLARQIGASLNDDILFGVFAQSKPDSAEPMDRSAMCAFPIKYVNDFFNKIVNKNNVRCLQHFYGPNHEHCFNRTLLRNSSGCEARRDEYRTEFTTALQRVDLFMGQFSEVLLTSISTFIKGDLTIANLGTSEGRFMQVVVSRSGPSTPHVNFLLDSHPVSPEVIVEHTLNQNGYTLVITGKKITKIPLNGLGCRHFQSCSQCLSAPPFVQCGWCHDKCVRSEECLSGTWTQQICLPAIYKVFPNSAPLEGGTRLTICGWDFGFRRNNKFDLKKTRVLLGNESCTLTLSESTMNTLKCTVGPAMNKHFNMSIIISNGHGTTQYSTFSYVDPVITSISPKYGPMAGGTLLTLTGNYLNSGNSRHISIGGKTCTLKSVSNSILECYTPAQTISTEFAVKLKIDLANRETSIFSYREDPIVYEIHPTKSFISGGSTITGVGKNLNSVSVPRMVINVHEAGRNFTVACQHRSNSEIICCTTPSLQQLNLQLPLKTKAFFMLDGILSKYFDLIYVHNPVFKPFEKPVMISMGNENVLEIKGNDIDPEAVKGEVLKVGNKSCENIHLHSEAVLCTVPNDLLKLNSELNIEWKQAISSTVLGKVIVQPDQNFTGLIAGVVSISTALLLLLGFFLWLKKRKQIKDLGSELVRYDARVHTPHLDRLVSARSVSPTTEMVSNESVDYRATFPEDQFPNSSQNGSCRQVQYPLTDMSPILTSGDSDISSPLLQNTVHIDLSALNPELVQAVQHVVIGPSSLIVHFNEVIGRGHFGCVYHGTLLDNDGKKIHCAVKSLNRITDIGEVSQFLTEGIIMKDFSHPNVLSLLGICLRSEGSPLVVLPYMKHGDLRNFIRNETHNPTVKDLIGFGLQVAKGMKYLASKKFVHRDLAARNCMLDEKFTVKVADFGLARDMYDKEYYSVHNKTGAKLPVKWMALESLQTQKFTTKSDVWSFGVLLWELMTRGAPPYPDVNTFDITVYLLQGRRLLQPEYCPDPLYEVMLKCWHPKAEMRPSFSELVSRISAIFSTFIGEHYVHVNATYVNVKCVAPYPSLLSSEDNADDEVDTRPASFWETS
Sequence of Homeodomain-interacting protein kinase 2 (Q9H2X6 whole entry): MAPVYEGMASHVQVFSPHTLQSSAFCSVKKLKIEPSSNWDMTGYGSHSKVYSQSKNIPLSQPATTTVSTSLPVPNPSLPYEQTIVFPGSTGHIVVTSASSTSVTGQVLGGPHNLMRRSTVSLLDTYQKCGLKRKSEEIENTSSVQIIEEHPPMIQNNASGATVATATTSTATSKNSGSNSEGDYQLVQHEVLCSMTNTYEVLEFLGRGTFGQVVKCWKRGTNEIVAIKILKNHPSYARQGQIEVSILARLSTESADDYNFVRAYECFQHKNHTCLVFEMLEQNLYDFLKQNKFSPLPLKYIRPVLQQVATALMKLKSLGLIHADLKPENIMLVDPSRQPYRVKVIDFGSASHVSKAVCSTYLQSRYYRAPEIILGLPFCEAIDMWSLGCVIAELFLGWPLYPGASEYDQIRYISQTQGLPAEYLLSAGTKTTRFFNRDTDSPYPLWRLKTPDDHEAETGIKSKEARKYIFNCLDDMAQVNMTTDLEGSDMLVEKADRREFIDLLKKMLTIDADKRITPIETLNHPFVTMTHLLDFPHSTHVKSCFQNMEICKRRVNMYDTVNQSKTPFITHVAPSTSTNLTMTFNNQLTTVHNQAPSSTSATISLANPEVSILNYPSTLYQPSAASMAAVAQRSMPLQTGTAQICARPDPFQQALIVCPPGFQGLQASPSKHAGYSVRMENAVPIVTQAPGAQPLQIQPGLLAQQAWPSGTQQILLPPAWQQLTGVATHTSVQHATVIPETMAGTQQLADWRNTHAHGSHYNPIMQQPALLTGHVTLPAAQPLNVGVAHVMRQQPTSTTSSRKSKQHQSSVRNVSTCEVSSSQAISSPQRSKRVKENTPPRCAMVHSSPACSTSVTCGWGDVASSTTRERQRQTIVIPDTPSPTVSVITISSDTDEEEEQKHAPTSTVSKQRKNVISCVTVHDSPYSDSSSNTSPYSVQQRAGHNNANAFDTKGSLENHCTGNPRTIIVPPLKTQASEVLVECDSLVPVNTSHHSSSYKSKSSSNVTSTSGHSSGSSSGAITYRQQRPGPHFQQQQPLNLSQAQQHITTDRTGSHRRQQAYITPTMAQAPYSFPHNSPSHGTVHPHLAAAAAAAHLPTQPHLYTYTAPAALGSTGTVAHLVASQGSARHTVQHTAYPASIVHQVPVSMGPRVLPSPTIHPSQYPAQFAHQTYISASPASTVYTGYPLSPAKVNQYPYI

With `O=C(N/N=C/c1c(O)ccc2ccccc12)c1[nH]ncc1Br`, the EC50 in the experiment “cells [1]” is 7.76 µM (active); with BJ it was 7.88 µM (active); in the experiment “cells [2]” it was 10.7 µM (active); in experiment [4], > 100 µM (inactive). The IC50 in experiment [3] is 36.5 µM (active); in [5], > 100 µM (inactive); at Prothrombin it was 91.6 µM (active).
For `O=C(Nc1cc(-c2c[nH]c3ncccc23)cc(Cl)n1)c1ccccc1`, the Ki in experiment [6] is > 3.98 µM (inactive).
On to `Nc1c(-c2ccc(NC(=O)Nc3cccc(C(F)(F)F)c3)cc2)cnc2c(-c3ccc4c(c3)OCO4)cnn12`, for which, in experiment [7], the Ki is > 2.51 µM (inactive).
Turning to `CNC[C@H](Cc1ccccc1)NC[C@@H](Cc1cccc2ccccc12)NCCc1ccc(C)cc1`, the EC50 in experiment [8] is 9.44 µM (active); with HEK293 [10], > 54.7 µM (inactive). The IC50 in the experiment on HEK293 [9] is 9.04 µM (active).
`CCN1C(=Cc2sc3ccccc3[n+]2C)C=Cc2cccc(C)c21`: the EC50 in experiment [11] was 0.142 µM (active); in “cells [13]”, < 0.004 µM (active). In experiment [12], the IC50 was 55.9 µM (active).
